Key:
Test in all cases: cell viability (% survival relative to DMSO control); higher = less cytotoxic
Settings in all cases: 72 h
BV-173 = tested on: BV-173
Protocol: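 8x8 drug-combination matrices (0–5000 nM; rosiglitazone and lestaurtinib 0–1000 nM) were run in BV-173 cells for 72 h with CellTiter-Glo read-out. Survival is normalised to DMSO and 10 µM bortezomib and clipped at 100%.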

Mono-Mac-6 = tested on: Mono-Mac-6
Protocol: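 8x8 drug-combination matrices (0–5000 nM; rosiglitazone and lestaurtinib 0–1000 nM) were run in Mono-Mac-6 cells for 72 h with CellTiter-Glo read-out. Survival is normalised to DMSO and 10 µM bortezomib and clipped at 100%.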

HL-60 = tested on: HL-60
Protocol: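 8x8 drug-combination matrices (0-5000 nM; rosiglitazone and lestaurtinib 0-1000 nM) were run in HL-60 cells for 72 h with a CellTiter-Glo read-out. Survival is normalised to DMSO and 10 µM bortezomib and clipped at 100%. Bliss synergy was analysed in SynergyFinder.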

O=C(C1CC1)N1CC[C@@H](C=C2NNC(=O)N2c2ccc(-c3ccc4occc4c3)cc2)C1 + CS(=O)(=O)N1CCN(Cc2cc3nc(-c4cccc5[nH]ncc45)nc(N4CCOCC4)c3s2)CC1 [Pictilisib]
cell viability [%]
Settings	drug1 concentration 5 nM	drug1 concentration 10 nM	drug1 concentration 50 nM	drug1 concentration 100 nM	drug1 concentration 500 nM	drug1 concentration 1000 nM	drug1 concentration 5000 nM
BV-173, drug2 concentration 5 nM	> 100	> 100	95	> 100	84.4	77.5	84.8
BV-173, drug2 concentration 10 nM	> 100	> 100	> 100	> 100	95.5	> 100	92.2
BV-173, drug2 concentration 50 nM	> 100	> 100	> 100	> 100	94.4	99.1	59.7
BV-173, drug2 concentration 100 nM	81	> 100	> 100	94.8	94.3	87.4	> 100
BV-173, drug2 concentration 500 nM	> 100	> 100	93.8	> 100	> 100	98.7	89.3
BV-173, drug2 concentration 1000 nM	89.7	99.2	> 100	92.8	80	99.9	78.4
BV-173, drug2 concentration 5000 nM	87.6	92.1	84.8	> 100	75.7	70.6	> 100
HL-60, drug2 concentration 5 nM	93	71.7	66.5	59.9	51.3	56.3	51.5
HL-60, drug2 concentration 10 nM	70	68.5	58.9	60.9	56.7	55.8	52.9
HL-60, drug2 concentration 50 nM	59.4	61.7	54.4	53.3	52.8	53.1	51
HL-60, drug2 concentration 100 nM	60.3	58.5	51.3	51.5	45.6	51.7	52.2
HL-60, drug2 concentration 500 nM	46.9	49	44.4	45.7	34.5	47.1	45
HL-60, drug2 concentration 1000 nM	46.7	50.8	41.3	44.2	48.4	49.9	39.1
HL-60, drug2 concentration 5000 nM	38.6	42.6	40.3	33.2	38.6	43.5	36.2
Mono-Mac-6, drug2 concentration 5 nM	> 100	94.2	88.6	86.5	92.2	81.2	88.3
Mono-Mac-6, drug2 concentration 10 nM	89.9	> 100	85.6	81	78.2	81.2	93.1
Mono-Mac-6, drug2 concentration 50 nM	80.5	> 100	81.7	69.7	74.8	99	68.1
Mono-Mac-6, drug2 concentration 100 nM	63	75.5	91.8	75.3	> 100	94.4	84.6
Mono-Mac-6, drug2 concentration 500 nM	70	83.9	> 100	87.7	73	86.2	81.4
Mono-Mac-6, drug2 concentration 1000 nM	53.7	71	52.4	87.1	71.3	77.1	69.4
Mono-Mac-6, drug2 concentration 5000 nM	51.6	27.5	37.5	48.3	49.9	24.2	49.3

O=C(C1CC1)N1CC[C@@H](C=C2NNC(=O)N2c2ccc(-c3ccc4occc4c3)cc2)C1 + C[C@H](NC(=O)c1sccc1OCc1ccc(Cl)cc1)c1ccccc1 [as1949490]
cell viability [%]
Settings	drug1 concentration 5 nM	drug1 concentration 10 nM	drug1 concentration 50 nM	drug1 concentration 100 nM	drug1 concentration 500 nM	drug1 concentration 1000 nM	drug1 concentration 5000 nM
BV-173, drug2 concentration 5 nM	> 100	> 100	> 100	> 100	91.8	93.3	80.6
BV-173, drug2 concentration 10 nM	94.1	> 100	> 100	> 100	> 100	> 100	> 100
BV-173, drug2 concentration 50 nM	> 100	> 100	> 100	85	> 100	88.7	96.7
BV-173, drug2 concentration 100 nM	> 100	80.2	> 100	88.5	> 100	96	84.7
BV-173, drug2 concentration 500 nM	85.5	> 100	84.8	> 100	91.2	92.3	77.2
BV-173, drug2 concentration 1000 nM	> 100	87.6	99.3	> 100	80.2	73.6	58.5
BV-173, drug2 concentration 5000 nM	65.2	44.9	73.8	46	44.2	57.2	0
HL-60, drug2 concentration 5 nM	81.9	89	82.7	68	60.7	60.8	51.6
HL-60, drug2 concentration 10 nM	> 100	86.7	79.5	65	58.1	58.4	48.5
HL-60, drug2 concentration 50 nM	99.3	83.4	74.8	57.3	59.3	51.9	42.1
HL-60, drug2 concentration 100 nM	95.7	83.4	68.3	53.2	56.1	48.8	37.7
HL-60, drug2 concentration 500 nM	88.6	78.1	63.5	56	46.3	49.6	38.5
HL-60, drug2 concentration 1000 nM	86.2	76.1	60.1	46.8	43.6	44.1	35.8
HL-60, drug2 concentration 5000 nM	80.8	72.6	57.6	43.4	44.8	40.9	33.3
Mono-Mac-6, drug2 concentration 5 nM	77.9	> 100	94.8	82.5	> 100	88.6	91.3
Mono-Mac-6, drug2 concentration 10 nM	> 100	> 100	> 100	84.4	> 100	98.4	> 100
Mono-Mac-6, drug2 concentration 50 nM	> 100	> 100	> 100	> 100	88.9	91.8	> 100
Mono-Mac-6, drug2 concentration 100 nM	90	96.4	> 100	94.7	77.3	> 100	69.7
Mono-Mac-6, drug2 concentration 500 nM	90.5	78	74.2	> 100	> 100	> 100	80.7
Mono-Mac-6, drug2 concentration 1000 nM	95	> 100	97.3	> 100	77.3	91.1	75.6
Mono-Mac-6, drug2 concentration 5000 nM	79	73.5	> 100	96.3	73.3	91.3	54.6

Source: the supplement of paper PMC8671470
